From patent US10975081B2, “Substituted fused pyrazole compounds and their use as LRRK2 inhibitors” (GlaxoSmithKline Intellectual Property Development Limited, priority 2015, dated 2021) come the findings set out here.

Assay [1] addresses Full length G2019 human LRRK2 (Homo sapiens (Human), UniProt Q5S007). In words: Full length G2019 human LRRK2 inhibition mass spectrometry assay. Format: biochemical. The note with it: Full length Flag-LRRK2, 25 uM LRRKtide, 2 mM ATP. How it is done: Mass Spectrometer Settings • LRRKtide Detection settings: Q1 mass 644.8 Da, Q3 mass 638.8, declustering potential 76 volts, collision energy 37 volts, CXP 34 volts • Phospho-LRRKtide Detection settings: Q1 mass 671.4 Da, Q3 mass 638.8, Declustering potential 76 volts, Collision energy 37 volts, CXP 34 volts. • A C4 cartridge was used and running buffers were: A (aqueous) 0.1% formic acid in water B (organic) 0.1% formic acid, 80% acetonitrile, 20% water • 5. Data was analysed using ActivityBase software (IDBS). A percent conversion from LRRKtide to Phospho-LRRKtide was calculated using the following formula: % conversion=(Phospho-LRRKtide product peak area/(Phospho-LRRKtide product peak area+LRRKtide substrate peak area))*100 2) Full Length G2019 Human LRRK2 Inhibition Mass Spectrometry Assay Insect Cell Cultures
Sf9 insect cells (Invitrogen Life Technologies, Carlsbad, Calif.) were maintained at 27° C. in SF 900 II SFM in 500-ml stationary flasks. The cells were maintained in exponential growth phase and subcultured twice per week. For larger volumes, cells were grown in 2-liter shaker flasks (Erlenmeyer, Corning) while being agitated with 120 rpm at 27° C. incubator shaker.
Human G2019 LRRK2 Plasmids Preparation
Primers Used for PCR Cloning:
• pHTBV-F: SEQ ID No: 1 • LRRK2 wt-F1: SEQ ID No: 2 • LRRK2 wt-R1: SEQ ID No: 3 • LRRK2 wt-F2: SEQ ID No: 4 • LRRK2 wt-R2: SEQ ID No: 5 • LRRK2 wt-F3: SEQ ID No: 6 • pHTBV-R: SEQ ID No: 7
The primers described above were used to amplify full length human LRRK2 (amino acids from 1-2527) with N terminal Flag tag from BioCat 116313 using high fidelity PCR polymerase KOD-Plus according to the manufacturer's instructions (KOD-211, TOYOBO). The PCR product was digested with BamHI and KpnI and ligated into BamHI and KpnI digested pHTBV1mcs3 (BioCat 127555). The sequence of the target fragment was confirmed by DNA sequencing. The construct BioCat141351 was generated by Novoprotein.
The G2019 full length Flag-LRRK2 coding sequence is SEQ ID No: 8.
The translated protein sequence for human G2019 full length LRRK2 flag tagged protein is SEQ ID No: 9.
Generation of the BacMam Virus
To generate the recombinant BacMam virus, SF9 cells were seeded in 6-well tissue culture dishes at 9×10^5 cells/well and allowed to attach for 20 min. Transfection procedure was followed using AESOP AP5911v2. Briefly, DH10Bac competent cells (10361-012, Invitrogen) were transformed by the genotypically normal human LRRK2 BacMam plasmid to generate the recombinant baculovirus DNA. The Sf9 insect cells were co-transfected with the mixture of recombinant baculovirus DNA and cellfectin (10362-100, Invitrogen). After 4 h of incubation at 27° C., the transfection media was replaced with Sf-900 III SFM medium containing 5% HI FBS (Ser. No. 10/100,147, Invitrogen). The cells were further incubated for 4 days. The infected cell culture medium containing the baculovirus (P0 virus stock) was collected and amplified by further infecting the Sf9 cells at multiplicity of infection (MOI) (pfu/cell) of 0.1.
Quantification of BacMam Viral Titre by BacPAKRapid Titer
The viral titre, measured as plaque forming unit (pfu)/ml was determined using BacPAK Papid Titer Kit (631406, Clontech) according to the manufacturer's protocol. The Sf9 cells seeded in 96-well plate with 3×10^5 cells per well were incubated with serial dilution of the viral stocks for 1 h at 27° C., 50 μl methyl cellulose overlay was added to each well followed by 43-47 h incubation. The cells were then fixed in 4% paraformaldehyde (PFA). After blocking the cells with diluted normal goat serum, Mouse anti-gp64 antibody was added to the cells. After 30 min incubation, the cells were washed with phosphate buffered saline containing 0.1% Triton-X100 (PBST) and incubated for another 30 min with goat anti-mouse antibody/HRP conjugate. This was followed by blue peroxidase substrate which detects the single infected cells and foci of infected cells by their dark blue color. […]

Assay [2] deals with LRRK2 Ser935 phosphorylation in SH-SY5Y cells over-expressing recombinant full length LRRK2 (Homo sapiens (Human), UniProt Q5S007). The experiment in a line: Recombinant cellular LRRK2 AlphaScreen assay. Format: cell-based. The note with it: 60 minutes, read-out: Recombinant cellular LRRK2 alphaScreen assay (pIC50) (converted). The method in brief:
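SH-SY5Y cells transduced with BacMam full-length LRRK2 (MOI 50, 24 h) were treated 60 min at 37° C with serial dilutions (top final 10 μM). Lysates were probed by AlphaScreen using biotinylated anti-pSer935 and total-LRRK2 antibodies; dose-response fit to a sigmoidal model.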

Chain of LRRK2 Ser935 phosphorylation in SH-SY5Y cells over-expressing recombinant full length LRRK2 (Q5S007 whole entry): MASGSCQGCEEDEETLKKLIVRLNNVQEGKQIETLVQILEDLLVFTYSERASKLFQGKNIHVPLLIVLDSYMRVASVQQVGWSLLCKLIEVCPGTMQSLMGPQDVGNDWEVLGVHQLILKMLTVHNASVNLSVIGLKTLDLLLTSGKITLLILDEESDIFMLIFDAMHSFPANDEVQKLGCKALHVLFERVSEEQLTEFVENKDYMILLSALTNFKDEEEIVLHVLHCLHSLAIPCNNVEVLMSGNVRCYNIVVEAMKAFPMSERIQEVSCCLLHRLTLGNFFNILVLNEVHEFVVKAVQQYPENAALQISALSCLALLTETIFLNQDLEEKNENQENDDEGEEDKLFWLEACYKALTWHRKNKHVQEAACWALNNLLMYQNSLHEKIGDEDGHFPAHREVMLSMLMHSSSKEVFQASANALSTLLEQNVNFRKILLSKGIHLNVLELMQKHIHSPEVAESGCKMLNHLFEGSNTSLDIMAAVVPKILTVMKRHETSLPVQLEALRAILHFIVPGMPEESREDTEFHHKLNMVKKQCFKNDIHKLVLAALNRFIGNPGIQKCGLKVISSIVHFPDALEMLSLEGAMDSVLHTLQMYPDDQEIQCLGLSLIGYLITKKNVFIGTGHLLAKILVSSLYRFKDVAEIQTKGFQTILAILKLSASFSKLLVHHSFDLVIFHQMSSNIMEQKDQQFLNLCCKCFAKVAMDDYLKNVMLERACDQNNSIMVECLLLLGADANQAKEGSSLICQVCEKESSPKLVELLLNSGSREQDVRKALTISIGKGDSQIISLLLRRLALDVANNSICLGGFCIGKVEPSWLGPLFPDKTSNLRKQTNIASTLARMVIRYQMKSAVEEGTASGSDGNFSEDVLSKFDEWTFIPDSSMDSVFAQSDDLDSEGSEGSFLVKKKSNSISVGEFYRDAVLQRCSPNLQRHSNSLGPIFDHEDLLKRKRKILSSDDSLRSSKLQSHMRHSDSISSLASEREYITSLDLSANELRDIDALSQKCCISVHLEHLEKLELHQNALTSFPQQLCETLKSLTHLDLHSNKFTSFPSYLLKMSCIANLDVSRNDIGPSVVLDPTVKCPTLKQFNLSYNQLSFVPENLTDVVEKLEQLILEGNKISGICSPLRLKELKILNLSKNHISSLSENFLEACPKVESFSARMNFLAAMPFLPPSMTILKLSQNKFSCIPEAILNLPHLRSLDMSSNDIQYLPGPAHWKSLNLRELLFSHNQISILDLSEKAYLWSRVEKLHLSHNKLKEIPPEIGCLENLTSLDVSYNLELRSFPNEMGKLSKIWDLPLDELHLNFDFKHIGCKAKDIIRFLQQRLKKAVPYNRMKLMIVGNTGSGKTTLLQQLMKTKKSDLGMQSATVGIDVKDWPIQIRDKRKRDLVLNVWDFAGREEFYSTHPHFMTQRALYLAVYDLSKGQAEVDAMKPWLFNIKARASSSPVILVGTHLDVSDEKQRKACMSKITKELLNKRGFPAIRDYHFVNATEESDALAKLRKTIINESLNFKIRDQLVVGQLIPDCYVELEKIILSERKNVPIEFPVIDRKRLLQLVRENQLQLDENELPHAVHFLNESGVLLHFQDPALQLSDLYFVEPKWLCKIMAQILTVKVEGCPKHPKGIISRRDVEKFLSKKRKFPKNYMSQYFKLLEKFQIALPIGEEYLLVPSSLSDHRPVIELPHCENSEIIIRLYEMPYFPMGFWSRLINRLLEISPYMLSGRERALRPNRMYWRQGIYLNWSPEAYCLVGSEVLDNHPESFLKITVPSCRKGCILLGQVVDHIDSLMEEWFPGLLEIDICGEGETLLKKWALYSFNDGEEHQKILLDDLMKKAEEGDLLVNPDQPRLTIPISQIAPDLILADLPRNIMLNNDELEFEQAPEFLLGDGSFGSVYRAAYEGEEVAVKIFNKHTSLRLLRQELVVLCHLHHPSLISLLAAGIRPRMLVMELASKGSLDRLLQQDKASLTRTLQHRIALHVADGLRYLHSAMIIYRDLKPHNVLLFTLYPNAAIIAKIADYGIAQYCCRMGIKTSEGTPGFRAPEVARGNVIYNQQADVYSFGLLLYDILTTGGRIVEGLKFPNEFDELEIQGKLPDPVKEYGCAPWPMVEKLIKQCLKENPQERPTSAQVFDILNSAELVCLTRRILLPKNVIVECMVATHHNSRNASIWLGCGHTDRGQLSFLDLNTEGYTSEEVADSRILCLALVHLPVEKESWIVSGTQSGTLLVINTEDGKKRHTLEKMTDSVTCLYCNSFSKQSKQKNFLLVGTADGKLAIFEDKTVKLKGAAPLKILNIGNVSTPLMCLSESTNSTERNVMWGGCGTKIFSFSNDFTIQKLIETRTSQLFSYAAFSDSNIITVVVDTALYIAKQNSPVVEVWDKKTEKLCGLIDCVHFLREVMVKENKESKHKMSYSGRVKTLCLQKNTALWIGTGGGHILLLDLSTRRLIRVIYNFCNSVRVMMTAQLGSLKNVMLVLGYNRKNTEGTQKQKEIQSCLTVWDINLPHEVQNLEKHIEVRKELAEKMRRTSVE
Chain of Full length G2019 human LRRK2 (Q5S007 other isoform, or with tags, fused parts or gaps): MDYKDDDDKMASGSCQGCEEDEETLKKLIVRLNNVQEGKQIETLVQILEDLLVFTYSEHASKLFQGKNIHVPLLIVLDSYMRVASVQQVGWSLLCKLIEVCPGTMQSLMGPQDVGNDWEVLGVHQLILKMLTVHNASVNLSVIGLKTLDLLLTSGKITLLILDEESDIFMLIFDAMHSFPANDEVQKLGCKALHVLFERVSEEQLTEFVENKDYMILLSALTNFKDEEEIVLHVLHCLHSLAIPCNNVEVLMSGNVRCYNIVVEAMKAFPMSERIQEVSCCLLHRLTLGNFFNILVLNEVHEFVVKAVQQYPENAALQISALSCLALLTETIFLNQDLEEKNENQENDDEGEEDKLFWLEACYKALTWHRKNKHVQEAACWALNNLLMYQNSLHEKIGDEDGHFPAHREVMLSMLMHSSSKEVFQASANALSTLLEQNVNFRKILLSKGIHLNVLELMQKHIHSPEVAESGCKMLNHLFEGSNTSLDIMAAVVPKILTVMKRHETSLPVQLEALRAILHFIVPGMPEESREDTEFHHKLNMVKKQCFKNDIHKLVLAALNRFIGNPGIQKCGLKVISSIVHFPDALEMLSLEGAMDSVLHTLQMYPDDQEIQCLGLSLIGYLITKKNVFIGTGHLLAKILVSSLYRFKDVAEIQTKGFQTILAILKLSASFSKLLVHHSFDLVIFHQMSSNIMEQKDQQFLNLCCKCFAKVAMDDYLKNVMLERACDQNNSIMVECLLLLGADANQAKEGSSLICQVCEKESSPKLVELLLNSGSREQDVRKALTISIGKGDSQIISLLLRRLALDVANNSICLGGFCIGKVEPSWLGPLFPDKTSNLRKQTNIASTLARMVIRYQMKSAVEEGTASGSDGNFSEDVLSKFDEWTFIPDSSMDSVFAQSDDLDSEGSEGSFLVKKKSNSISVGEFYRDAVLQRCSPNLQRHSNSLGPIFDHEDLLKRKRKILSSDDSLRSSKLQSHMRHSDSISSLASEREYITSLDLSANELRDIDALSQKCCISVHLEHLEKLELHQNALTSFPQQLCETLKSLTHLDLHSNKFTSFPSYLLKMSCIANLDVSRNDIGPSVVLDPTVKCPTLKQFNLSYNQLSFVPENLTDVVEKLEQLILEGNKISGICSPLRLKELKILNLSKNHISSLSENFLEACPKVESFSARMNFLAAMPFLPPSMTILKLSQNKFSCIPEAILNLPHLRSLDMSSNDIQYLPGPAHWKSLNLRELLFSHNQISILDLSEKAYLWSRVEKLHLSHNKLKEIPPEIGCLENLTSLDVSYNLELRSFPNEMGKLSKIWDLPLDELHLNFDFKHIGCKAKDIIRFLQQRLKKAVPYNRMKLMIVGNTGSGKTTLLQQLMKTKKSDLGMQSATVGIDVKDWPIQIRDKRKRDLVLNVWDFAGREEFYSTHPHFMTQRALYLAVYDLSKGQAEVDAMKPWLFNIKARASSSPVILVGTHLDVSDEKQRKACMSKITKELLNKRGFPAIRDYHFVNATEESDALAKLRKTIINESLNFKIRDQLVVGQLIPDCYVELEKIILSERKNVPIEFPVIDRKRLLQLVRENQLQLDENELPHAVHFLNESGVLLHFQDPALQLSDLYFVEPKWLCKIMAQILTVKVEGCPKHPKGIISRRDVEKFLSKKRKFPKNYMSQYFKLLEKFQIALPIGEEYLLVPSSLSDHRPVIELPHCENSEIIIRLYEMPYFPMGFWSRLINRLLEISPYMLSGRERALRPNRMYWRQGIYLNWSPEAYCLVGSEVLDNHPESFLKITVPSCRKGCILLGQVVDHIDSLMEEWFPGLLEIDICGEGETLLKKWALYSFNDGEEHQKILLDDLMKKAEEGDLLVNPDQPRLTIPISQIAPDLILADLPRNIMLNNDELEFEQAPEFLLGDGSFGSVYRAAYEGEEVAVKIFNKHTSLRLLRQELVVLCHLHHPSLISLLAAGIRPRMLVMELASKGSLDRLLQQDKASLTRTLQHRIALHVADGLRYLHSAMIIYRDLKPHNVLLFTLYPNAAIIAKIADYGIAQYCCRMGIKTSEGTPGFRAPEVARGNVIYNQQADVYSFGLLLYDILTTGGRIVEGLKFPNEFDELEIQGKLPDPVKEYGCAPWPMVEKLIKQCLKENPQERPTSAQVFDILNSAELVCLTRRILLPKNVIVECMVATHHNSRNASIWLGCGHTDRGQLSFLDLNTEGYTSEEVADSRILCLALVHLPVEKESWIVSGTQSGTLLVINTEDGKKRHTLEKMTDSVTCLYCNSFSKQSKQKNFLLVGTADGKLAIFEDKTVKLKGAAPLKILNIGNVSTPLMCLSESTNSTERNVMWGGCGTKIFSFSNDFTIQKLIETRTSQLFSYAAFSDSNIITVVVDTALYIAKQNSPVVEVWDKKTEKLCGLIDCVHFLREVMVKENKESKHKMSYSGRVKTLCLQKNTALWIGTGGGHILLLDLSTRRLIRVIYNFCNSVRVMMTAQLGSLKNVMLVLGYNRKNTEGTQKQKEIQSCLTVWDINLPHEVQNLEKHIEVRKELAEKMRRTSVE

Consider `COc1nc(N2CC(C)(O)C2)cc(-n2ncc3cc(C)c(C4CCN(C5COC5)CC4)cc32)n1` [Example E80, 1-(2-Methoxy-6-(5-methyl-6-(1-(oxetan-3-yl)piperidin-4-yl)-1H-indazol-1-yl)pyrimidin-4-yl)-3-methylazetidin-3-ol], for which the IC50 in assay [1] (read-out: Full length G2019 human LRRK2 Inhibition mass spectrometry assay (pIC50) (converted)) is no more than 10000 nM; in assay [2], no more than 100 nM.
In the case of `Cc1nc(N2CCO[C@H](CO)C2)cc(-n2ncc3cc(C)c(C4CCN(C5COC5)CC4)cc32)n1` [Example E183, (S)-(4-(2-Methyl-6-(5-methyl-6-(1-(oxetan-3-yl)piperidin-4-yl)-1H-indazol-1-yl)pyrimidin-4-yl)morpholin-2-yl)methanol], the “Full length G2019 human LRRK2 Inhibition mass spectrometry assay (pIC50)” value in assay [1] was determined as 7.9. In assay [2], the IC50 is 63.1 nM.
For the compound `Cc1nc(N2CCO[C@@H](CO)C2)cc(-n2ncc3cc(C)c(C4CCNCC4)cc32)n1` [Example E188, (R)-(4-(2-Methyl-6-(5-methyl-6-(piperidin-4-yl)-1H-indazol-1-yl)pyrimidin-4-yl)morpholin-2-yl)methanol], the “Full length G2019 human LRRK2 Inhibition mass spectrometry assay (pIC50)” value in assay [1] is recorded as 7.6. For the same compound, the IC50 in assay [2] was 79.4 nM.
For `COc1nc(N2CCOCC2)cc(-n2ncc3cc(C)c(C4CCNCC4)cc32)n1.Cl` [Example E205, 4-(2-Methoxy-6-(5-methyl-6-(piperidin-4-yl)-1H-indazol-1-yl)pyrimidin-4-yl)morpholine] the same measures were 7.7 and 50.1 nM.
Take `Cc1nc(N2CCO[C@H](CO)C2)cc(-n2ncc3cc(Cl)c(C4CCN(C5COC5)CC4)cc32)n1` [Example E208, (S)-(4-(6-(5-Chloro-6-(1-(oxetan-3-yl)piperidin-4-yl)-1H-indazol-1-yl)-2-methylpyrimidin-4-yl)morpholin-2-yl)methanol]: the “Full length G2019 human LRRK2 Inhibition mass spectrometry assay (pIC50)” value in assay [1] stood at 7.7. The IC50 in assay [2] was 39.8 nM.
Take `Cc1nc(N2CCO[C@@H](CO)C2)cc(-n2ncc3cc(C)c(C4CCOCC4)cc32)n1` [Example E239, (R)-(4-(2-Methyl-6-(5-methyl-6-(tetrahydro-2H-pyran-4-yl)-1H-indazol-1-yl)pyrimidin-4-yl)morpholin-2-yl)methanol]: in assay [1], the “Full length G2019 human LRRK2 Inhibition mass spectrometry assay (pIC50)” value turned out to be 7.9. The IC50 in assay [2] was 158 nM.
